Experimental data taken from US12365658B2, “Benzothia(di)azepine compounds and their use as bile acid modulators” (Albireo AB, priority 2021, dated 2025).

Assays:
Human IBAT = biological target: T1, Human IBAT (Homo sapiens, UniProt Q12908); test: IBAT (h/m) assay, human IBAT-overexpressing cells, 3H-taurocholic acid uptake; type: cell-based; details: 0.25 μM 3H-taurocholic acid and 5 μM cold taurocholic acid, 20 minutes, highest test concentration 10 μM, read-out: hIBAT IC50
T1 construct: expressed in transfected cells; kept under Puromycin selection
T1 sequence (Q12908 1-348): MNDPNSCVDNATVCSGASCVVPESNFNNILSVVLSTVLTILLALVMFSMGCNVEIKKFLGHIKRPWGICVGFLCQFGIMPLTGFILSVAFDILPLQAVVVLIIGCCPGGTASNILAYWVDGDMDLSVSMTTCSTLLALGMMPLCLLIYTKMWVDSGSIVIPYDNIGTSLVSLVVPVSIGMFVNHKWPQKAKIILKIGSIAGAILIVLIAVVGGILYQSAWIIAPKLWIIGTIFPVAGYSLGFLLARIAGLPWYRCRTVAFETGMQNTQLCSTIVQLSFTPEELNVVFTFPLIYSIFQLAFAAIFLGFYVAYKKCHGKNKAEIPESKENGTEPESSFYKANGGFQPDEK
Experimental: IBAT (h/m) Assay Protocol
10,000 cells (Human or Mouse IBAT-overexpressing cells) were seeded in 96-wells plate (Corning CLS3809) in 200 μL MEM-alpha medium (Gibco 12571-063) supplemented with 10% FBS (Gibco 10438026) containing Puromycin (Gibco A1113803) (10 μg/mL) and incubated at 37° C. in 5% CO2 for 48 hours. After incubation, media was decanted from the wells and cells were washed two times with 300 μL of basal MEM-alpha medium (FBS-free). After decanting basal MEM-alpha medium each time, plates were tapped against paper towel to ensure maximum removal of residual media. Test inhibitor dilutions (highest test concentration being 10 μM, 3-fold serial dilution, 10 points) prepared in DMSO (Sigma D2650) were added in incubation mix (maintaining 0.2% final DMSO concentration) containing 0.25 μM 3H-taurocholic acid (ARC ART-1368) and 5 μM of cold taurocholic acid (Sigma T4009). 50 μL of incubation mix containing test inhibitors was then added to the wells (in duplicate) and the plates were incubated for 20 minutes in a CO2 incubator at 37° C. After incubation, the reaction was stopped by keeping the plates on ice water mix for 2-3 minutes and then the incubation mix was aspirated completely from the wells. The wells were washed two times with 250 μL of chilled unlabelled 1 mM taurocholic acid dissolved in HEPES (Gibco 15630080)-buffered (10 mM) HBSS (Gibco 14175079) (pH 7.4). The plates were tapped against a paper towel after every wash to ensure maximum removal of blocking buffer.
100 μL of MicroScint-20 (PerkinElmer 6013621) was added to the wells and kept overnight at room temperature before reading the plates in TopCount NXT™ Microplate Scintillation and Luminescence Counter from PerkinElmer under 3H Test protocol (set at 120 seconds reading time per well).
Preparation of Test Compound Dilutions
All test compounds were provided in powder form at room temperature. 10 mM DMSO stocks of the test compounds were prepared, aliquoted and stored at −20° C. From the 10 mM DMSO stock of the compounds, a 3-fold serial dilution in DMSO was prepared to get a total of 10 dilutions of the test compounds. 0.5 μL of this dilution in DMSO was added to 250 μL of FBS-free basal media containing 3H-taurocholic acid and cold taurocholic acid to prepare the incubation mixture.

Bioavailability studies = type: in vivo, Male mice (C57BL/6 or CD1) or Wistar rats; details: male, plasma; single intravenous dose 1 mg/kg and single oral dose 10 mg/kg; species per compound not given
Experimental: Male mice (C57BL/6 or CD1) or Wistar rats of 8-9 weeks old were used. For each test compound, two groups of 3 animals each were used. One group was administered a single intravenous dose of 1 mg/kg (vehicle 100% DMSO) through the tail vein and the other group was administered a single oral dose of 10 mg/kg through gavage needle. The group that was administered an oral dose was fasted overnight. Blood samples were collected after 0.083, 0.25, 0.5, 1, 2, 4, 6, 8 and 24 hours following intravenous administration, and after 0.25, 0.5, 1, 2, 4, 6, 8 and 24 hours following oral administration. Blood samples were taken from saphenous vein. 0.2% EDTA was used as the anticoagulant. The samples were analyzed by a discovery grade bioanalytical method developed for the estimation of test compound in plasma, using an LC-MS/MS system.

Row | SMILES | IC50 (Human IBAT) [µM] | bioavailability (Bioavailability studies) [%]
1 | CCCCC1CN(c2ccccc2)c2cc(SC)c(OCC(C)(C)C(=O)O)cc2S(=O)(=O)N1C (single isomer, unassigned) [2, enantiomer 2] | 0.682 | 100
2 | CCCCC1CN(c2ccccc2)c2cc(SC)c(OCC3(C(=O)O)CC3)cc2S(=O)(=O)N1C (single isomer, unassigned) [4, enantiomer 2] | 0.294 | 17
3 | CCCCC1CN(c2ccccc2)c2cc(SCC)c(OCC(C)(C)C(=O)O)cc2S(=O)(=O)N1C (single isomer, unassigned) [6, enantiomer 2] | 0.29 | –
4 | CCCCC1CN(c2ccccc2)c2cc(SCC)c(OCC3(C(=O)O)CC3)cc2S(=O)(=O)N1C (single isomer, unassigned) [8, enantiomer 1] | 0.166 | 40
5 | CCCCC1CN(c2ccccc2)c2cc(SC)c(OCC(C)(OC)C(=O)O)cc2S(=O)(=O)N1C (single isomer, unassigned) [24, diastereomer 1] | 1.03 | –
6 | CCCCC1CN(c2ccccc2)c2cc(SC)c(OCC(C)(OC)C(=O)O)cc2S(=O)(=O)N1C (single isomer, unassigned) [24, diastereomer 2] | 0.412 | –
7 | CCCCC1CN(c2ccccc2)c2cc(SC)c(OCC(OC)C(=O)O)cc2S(=O)(=O)N1C (single isomer, unassigned) [32, diastereomer 1] | 2.4 | –
8 | CCCCC1CN(c2ccccc2)c2cc(SC)c(OCC(C)(OC)C(=O)O)cc2S(=O)(=O)N1C (single isomer, unassigned) [Example 23, 3-((3-Butyl-2-methyl-7-(methylthio)-1,1-dioxido-5-phenyl-2,3,4,5-tetrahydro-1,2,5-benzothiadiazepin-8-yl)oxy)-2-methoxy-2-methylpropanoic acid] | 0.257 | –
9 | CCCCC1CN(c2ccccc2)c2cc(SC)c(OCC3(C(=O)O)CC3)cc2S(=O)(=O)N1C (centres unmarked) [Example 3, 1-(((3-Butyl-2-methyl-7-(methylthio)-1,1-dioxido-5-phenyl-2,3,4,5-tetrahydro-1,2,5-benzothiadiazepin-8-yl)oxy)methyl)cyclopropane-1-carboxylic acid] | 0.274 | –
10 | CCCCC1CN(c2ccccc2)c2cc(SCC)c(OCC(C)(C)C(=O)O)cc2S(=O)(=O)N1C (centres unmarked) [Example 5, 3-((3-Butyl-7-(ethylthio)-2-methyl-1,1-dioxido-5-phenyl-2,3,4,5-tetrahydro-1,2,5-benzothiadiazepin-8-yl)oxy)-2,2-dimethylpropanoic acid] | 0.615 | –
11 | CCCCC1CN(c2ccccc2)c2cc(SCC)c(OCC3(C(=O)O)CC3)cc2S(=O)(=O)N1C (centres unmarked) [Example 7, 1-(((3-Butyl-7-(ethylthio)-2-methyl-1,1-dioxido-5-phenyl-2,3,4,5-tetrahydro-1,2,5-benzothiadiazepin-8-yl)oxy)methyl)cyclopropane-1-carboxylic acid] | 0.405 | –
12 | CCCCC1CN(c2ccc(F)cc2)c2cc(SC)c(OCC(C)(C)C(=O)O)cc2S(=O)(=O)N1C (centres unmarked) [Example 13, 3-((3-butyl-5-(4-fluorophenyl)-2-methyl-7-(methylthio)-1,1-dioxido-2,3,4,5-tetrahydro-1,2,5-benzothiadiazepin-8-yl)oxy)-2,2-dimethylpropanoic acid] | 0.36 | –
13 | CCCCC1CN(c2ccccc2)c2cc(SC)c(OCC(C)(OC)C(=O)O)cc2S(=O)(=O)N1C (centres unmarked) [Example 22, 3-((3-Butyl-2-methyl-7-(methylthio)-1,1-dioxido-5-phenyl-2,3,4,5-tetrahydro-1,2,5-benzothiadiazepin-8-yl)oxy)-2-methoxy-2-methylpropanoic acid] | 0.428 | –
14 | CCCCC1CN(c2ccc(F)cc2)c2cc(SCC)c(OCC(O)C(=O)O)cc2S(=O)(=O)N1C (centres unmarked) [Example 33, 3-((3-butyl-7-(ethylthio)-5-(4-fluorophenyl)-2-methyl-1,1-dioxido-2,3,4,5-tetrahydro-1,2,5-benzothiadiazepin-8-yl)oxy)-2-hydroxypropanoic acid] | 0.117 | –
